The text below walks through data of patent US9085561B2, “Cyclic urea- or lactam-substituted quinoxaline-type piperidines as ORL-1 modulators” (priority 2012, dated 2015).

For test [1], the target named is human opioid receptor-like (ORL-1) (Homo sapiens, UniProt P41146). Kind of test: In vitro ORL-1 receptor [35S]GTPγS functional assay. The test is classed as biochemical. In general terms: GTPγS resists hydrolysis and so accumulates on activated G proteins.
The target of test [2] is human kappa opioid receptor (Homo sapiens, UniProt P41145). Kind of test: In vitro kappa-opioid receptor binding assay ([3H]-U69,593 displacement).
The target in a further test is human CYP2D6 (Homo sapiens, UniProt P10635). Kind of test: Cytochrome P450 2D6 inhibition (dextromethorphan O-demethylation, pooled human hepatic microsome).
human CYP2D6, sequence (P10635 whole entry): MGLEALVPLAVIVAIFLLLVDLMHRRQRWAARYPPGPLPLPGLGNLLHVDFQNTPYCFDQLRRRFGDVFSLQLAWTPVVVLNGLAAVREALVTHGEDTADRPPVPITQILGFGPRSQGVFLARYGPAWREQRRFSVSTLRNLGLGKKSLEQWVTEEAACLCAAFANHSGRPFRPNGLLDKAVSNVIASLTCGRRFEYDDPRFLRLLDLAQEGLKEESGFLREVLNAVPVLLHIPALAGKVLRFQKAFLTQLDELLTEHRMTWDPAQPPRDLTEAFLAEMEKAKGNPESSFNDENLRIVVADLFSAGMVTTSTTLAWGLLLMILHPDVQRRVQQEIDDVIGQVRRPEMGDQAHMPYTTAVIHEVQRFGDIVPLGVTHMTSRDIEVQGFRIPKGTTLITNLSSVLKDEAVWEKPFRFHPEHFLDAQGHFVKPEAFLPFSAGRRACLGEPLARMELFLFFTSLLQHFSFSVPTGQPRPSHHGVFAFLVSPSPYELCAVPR

human opioid receptor-like (ORL-1), sequence (P41146 whole entry): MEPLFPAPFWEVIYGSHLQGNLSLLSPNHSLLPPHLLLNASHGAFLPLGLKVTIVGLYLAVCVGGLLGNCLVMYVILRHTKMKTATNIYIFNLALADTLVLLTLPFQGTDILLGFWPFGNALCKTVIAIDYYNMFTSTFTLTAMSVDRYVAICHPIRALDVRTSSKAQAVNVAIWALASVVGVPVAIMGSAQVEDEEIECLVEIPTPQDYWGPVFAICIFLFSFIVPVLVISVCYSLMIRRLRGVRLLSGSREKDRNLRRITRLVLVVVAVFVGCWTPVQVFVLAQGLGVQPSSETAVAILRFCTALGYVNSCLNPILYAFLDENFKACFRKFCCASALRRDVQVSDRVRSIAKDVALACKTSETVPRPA
human kappa opioid receptor, sequence (P41145 whole entry): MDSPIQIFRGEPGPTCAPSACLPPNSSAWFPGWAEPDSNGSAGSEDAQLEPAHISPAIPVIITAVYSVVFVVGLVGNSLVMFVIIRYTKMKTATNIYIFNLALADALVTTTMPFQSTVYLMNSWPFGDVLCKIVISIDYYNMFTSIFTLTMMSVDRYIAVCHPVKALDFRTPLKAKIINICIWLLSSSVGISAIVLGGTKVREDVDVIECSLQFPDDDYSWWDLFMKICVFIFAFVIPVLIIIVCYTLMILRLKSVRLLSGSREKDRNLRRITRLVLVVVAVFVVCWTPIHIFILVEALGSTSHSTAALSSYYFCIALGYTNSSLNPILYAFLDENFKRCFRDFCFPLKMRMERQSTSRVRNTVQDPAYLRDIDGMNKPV

Usually EC50 stands for the midpoint of the concentration-response curve. The low end stands for a more potent agent, the high end for a less potent agent. What is called Ki is a measure of affinity in units of concentration, obtained from inhibition or displacement. In general, IC50 refers to the concentration that gives 50% inhibition. A high value points to weaker potency in that assay. The molecule `O=c1cnn(-c2nc3ccccc3n([C@H]3C[C@H]4COC[C@@H](C3)N4[C@@H]3C[C@@H]4CCCC[C@@H](C4)C3)c2=O)c(=O)[nH]1` [Compound P9b, 2-(4-((1R,5S,7 S)-9-((1R,6S,8s)-bicyclo[4.3.1]decan-8-yl)-3-oxa-9-azabicyclo[3.3.1]nonan-7-yl)-3-oxo-3,4-dihydroquinoxalin-2-yl)-1,2,4-triazine-3,5(2H,4H)-dione] displayed an EC50 in test [1] of 0.104 ± 0.043 µM. Moreover, in test [2], the Ki was found to be 13.1 µM. For the same molecule, the IC50 at human CYP2D6 is greater than 20 µM.
`CC1(C)C(=O)NC(=O)N1c1nc2ccccc2n([C@H]2C[C@H]3CCC[C@@H](C2)N3[C@H]2C[C@@H]3CCC[C@@H](C3)C2)c1=O` [Compound B19a, 1-(4-((1R,1′R,3r,3′R,5S,5′S)-[3,9′-bi(9′-azabicyclo[3.3.1]nonan)]-3′-yl)-3-oxo-3,4-dihydroquinoxalin-2-yl)-5,5-dimethylimidazolidine-2,4-dione] showed an EC50 in test [1] greater than 20 µM. This molecule also gave an IC50 at human CYP2D6 greater than 20 µM.
Take `O=C1CNC(=O)N1c1nc2ccccc2n([C@H]2C[C@H]3CCC[C@@H](C2)N3[C@H]2C[C@@H]3CCC[C@@H](C3)C2)c1=O` [Compound B20a, 3-(4-((1R,1′R,3r,3′R,5S,5′S)-[3,9′-bi(9′-azabicyclo[3.3.1]nonan)]-3′-yl)-3-oxo-3,4-dihydroquinoxalin-2-yl)imidazolidine-2,4-dione]: the EC50 in test [1] was greater than 20 µM. The molecule further came in with an IC50 against human CYP2D6 greater than 20 µM.
